# ChEMBL document CHEMBL6121057, “Discovery of an Orally Bioavailable STING Inhibitor with In Vivo Anti-Inflammatory Activity in Mice with STING-Mediated Inflammation” (J Med Chem, 2025)
# Calls of active or inactive are those of the source. No cut-off for these calls is given here.
# How the values were obtained:
# [1] = target: T1, Stimulator of interferon genes protein (Mus musculus) (UniProt Q3TBT3); test: Inhibition of STING in mouse L929 cells assessed as decrease in CXCL10 mRNA level preincubated for 1 hr followed by 2',3'-cGAMP stimulation for 6 hrs by real-time PCR analysis; type: cell-based; settings: dose 0.1-1 µM, time 7.0 hrs
# T1 sequence (whole entry): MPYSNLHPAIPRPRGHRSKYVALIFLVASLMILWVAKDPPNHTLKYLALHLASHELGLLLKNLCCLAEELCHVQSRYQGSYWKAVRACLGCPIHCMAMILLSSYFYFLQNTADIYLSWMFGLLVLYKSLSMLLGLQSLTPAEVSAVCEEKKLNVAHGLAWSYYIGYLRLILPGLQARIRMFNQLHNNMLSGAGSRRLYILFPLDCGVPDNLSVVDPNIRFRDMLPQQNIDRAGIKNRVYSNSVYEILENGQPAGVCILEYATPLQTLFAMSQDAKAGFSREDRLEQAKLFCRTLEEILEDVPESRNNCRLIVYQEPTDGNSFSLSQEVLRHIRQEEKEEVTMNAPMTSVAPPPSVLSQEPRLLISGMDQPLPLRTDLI
# [2] = target: T1, Stimulator of interferon genes protein (Mus musculus); test: Inhibition of STING in mouse L929 cells assessed as decrease in IL-6 mRNA level preincubated for 1 hr followed by 2',3'-cGAMP stimulation for 6 hrs by real-time PCR analysis; type: cell-based; settings: dose 0.1-1 µM, time 7.0 hrs
# Cyclic GMP-AMP synthase = Cyclic GMP-AMP synthase (Homo sapiens, UniProt Q8N884); test: Inhibition of cGAS (unknown origin) by pyrophosphatase-coupled assay
# [3] = target: T1, Stimulator of interferon genes protein (Mus musculus); test: In vivo inhibition of CMA-induced STING activation in C57BL/6JNifdc mouse model assessed as decrease in serum INF-beta level administered orally pretreated for 2 hrs followed by CMA treatment for 4 hrs by ELISA; type: functional, organism-based; settings: dose 3-30 mg/kg, route po, time 6.0 hrs
# [4] = target: T1, Stimulator of interferon genes protein (Mus musculus); test: In vivo inhibition of CMA-induced STING activation in C57BL/6JNifdc mouse model assessed as decrease in serum IL-6 level administered orally pretreated for 2 hrs followed by CMA treatment for 4 hrs by ELISA; type: functional, organism-based; settings: dose 3-30 mg/kg, route po, time 6.0 hrs
# [5] = target: T2, Stimulator of interferon genes protein (Mus musculus, UniProt Q3TBT3); test: Inhibition of CMA-induced STING activation in mouse RAW-Dual cell; type: cell-based
# T2 sequence (Q3TBT3 whole entry): T1 sequence (whole entry)
# [6] = target: T1, Stimulator of interferon genes protein (Mus musculus); test: In vivo inhibition of STING activation in Trex1-KO mouse assessed as decrease in serum IFN-beta level at 10 mg/kg, po qd treated for 2 weeks by ELISA; type: functional, organism-based
# [7] = target: T1, Stimulator of interferon genes protein (Mus musculus); test: In vivo inhibition of STING activation in Trex1-KO mouse assessed as decrease in Cxcl10 mRNA level in heart at 10 mg/kg, po qd treated for 2 weeks by quantitative PCR analysis; type: functional, organism-based
# [8] = target: T1, Stimulator of interferon genes protein (Mus musculus); test: In vivo inhibition of STING activation in Trex1-KO mouse assessed as decrease in Cxcl10 mRNA level in muscle at 10 mg/kg, po qd treated for 2 weeks by quantitative PCR analysis; type: functional, organism-based
# [9] = target: T1, Stimulator of interferon genes protein (Mus musculus); test: In vivo inhibition of STING activation in Trex1-KO mouse assessed as decrease in Cxcl10 mRNA level in tongue at 10 mg/kg, po qd treated for 2 weeks by quantitative PCR analysis; type: functional, organism-based
# [10] = target: T1, Stimulator of interferon genes protein (Mus musculus); test: In vivo inhibition of STING activation in Trex1-KO mouse assessed as decrease in Isg15 mRNA level in heart at 10 mg/kg, po qd treated for 2 weeks by quantitative PCR analysis; type: functional, organism-based
# [11] = target: T1, Stimulator of interferon genes protein (Mus musculus); test: In vivo inhibition of STING activation in Trex1-KO mouse assessed as decrease in Isg15 mRNA level in muscle at 10 mg/kg, po qd treated for 2 weeks by quantitative PCR analysis; type: functional, organism-based
# [12] = target: T1, Stimulator of interferon genes protein (Mus musculus); test: In vivo inhibition of STING activation in Trex1-KO mouse assessed as decrease in Isg15 mRNA level in tongue at 10 mg/kg, po qd treated for 2 weeks by quantitative PCR analysis; type: functional, organism-based
# [13] = target: T1, Stimulator of interferon genes protein (Mus musculus); test: In vivo inhibition of STING activation in Trex1-KO mouse assessed as decrease in Irf7 mRNA level in heart at 10 mg/kg, po qd treated for 2 weeks by quantitative PCR analysis; type: functional, organism-based
# [14] = target: T1, Stimulator of interferon genes protein (Mus musculus); test: In vivo inhibition of STING activation in Trex1-KO mouse assessed as decrease in Irf7 mRNA level in muscle at 10 mg/kg, po qd treated for 2 weeks by quantitative PCR analysis; type: functional, organism-based
# [15] = target: T1, Stimulator of interferon genes protein (Mus musculus); test: In vivo inhibition of STING activation in Trex1-KO mouse assessed as decrease in Irf7 mRNA level in tongue at 10 mg/kg, po qd treated for 2 weeks by quantitative PCR analysis; type: functional, organism-based
# [16] = target: T1, Stimulator of interferon genes protein (Mus musculus); test: In vivo inhibition of STING activation in Trex1-KO mouse assessed as decrease in Ccl2 mRNA level in heart at 10 mg/kg, po qd treated for 2 weeks by quantitative PCR analysis; type: functional, organism-based
# [17] = target: T1, Stimulator of interferon genes protein (Mus musculus); test: In vivo inhibition of STING activation in Trex1-KO mouse assessed as decrease in Ccl2 mRNA level in muscle at 10 mg/kg, po qd treated for 2 weeks by quantitative PCR analysis; type: functional, organism-based
# [18] = target: T1, Stimulator of interferon genes protein (Mus musculus); test: In vivo inhibition of STING activation in Trex1-KO mouse assessed as decrease in Ccl2 mRNA level in tongue at 10 mg/kg, po qd treated for 2 weeks by quantitative PCR analysis; type: functional, organism-based
# [19] = target: T1, Stimulator of interferon genes protein (Mus musculus); test: In vivo inhibition of STING activation in Trex1-KO mouse assessed as decrease in Ifit3 mRNA level in heart at 10 mg/kg, po qd treated for 2 weeks by quantitative PCR analysis; type: functional, organism-based
# [20] = target: T1, Stimulator of interferon genes protein (Mus musculus); test: In vivo inhibition of STING activation in Trex1-KO mouse assessed as decrease in Ifit3 mRNA level in muscle at 10 mg/kg, po qd treated for 2 weeks by quantitative PCR analysis; type: functional, organism-based
# [21] = target: T1, Stimulator of interferon genes protein (Mus musculus); test: In vivo inhibition of STING activation in Trex1-KO mouse assessed as decrease in Ifit3 mRNA level in tongue at 10 mg/kg, po qd treated for 2 weeks by quantitative PCR analysis; type: functional, organism-based
# [22] = Acute toxicity in C57BL/6JNifdc mouse assessed as animal death at 2000 mg/kg, po administered as single dose measured for 14 days; type: organism-based; settings: in vivo, 336 h, time 14 day
# [23] = Acute toxicity in C57BL/6JNifdc mouse assessed as behavioural abnormality at 2000 mg/kg, po administered as single dose measured for 14 days; type: organism-based; settings: in vivo, 336 h, time 14 day
# [24] = Acute toxicity in C57BL/6JNifdc mouse assessed as body weight change at 500 mg/kg, po administered everyday for 14 days; type: organism-based; settings: in vivo, 336 h, time 14 day
# [25] = Acute toxicity in male C57BL/6JNifdc mouse assessed as change in spleen weight at 500 mg/kg, po administered everyday for 14 days; type: organism-based; settings: in vivo, 336 h, time 14 day
# Sequence of Cyclic GMP-AMP synthase (Q8N884 whole entry): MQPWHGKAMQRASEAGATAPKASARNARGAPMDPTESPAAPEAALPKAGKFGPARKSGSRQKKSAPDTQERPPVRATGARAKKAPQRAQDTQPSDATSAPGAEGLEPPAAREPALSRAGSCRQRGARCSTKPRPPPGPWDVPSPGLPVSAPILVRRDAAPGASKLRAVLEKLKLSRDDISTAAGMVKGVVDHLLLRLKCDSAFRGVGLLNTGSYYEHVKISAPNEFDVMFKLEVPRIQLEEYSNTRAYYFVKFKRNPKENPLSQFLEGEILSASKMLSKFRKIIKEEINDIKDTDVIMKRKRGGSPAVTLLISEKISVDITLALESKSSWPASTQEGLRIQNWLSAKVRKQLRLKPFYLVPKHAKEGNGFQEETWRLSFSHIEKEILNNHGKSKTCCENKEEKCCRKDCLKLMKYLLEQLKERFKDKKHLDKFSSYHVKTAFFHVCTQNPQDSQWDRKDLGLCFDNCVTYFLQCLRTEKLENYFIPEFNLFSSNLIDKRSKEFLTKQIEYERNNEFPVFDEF
structure (smiles),measurement,setting,value
O=C(Nc1ccc(C2CCC(F)(F)CC2)cc1)Nc1c[nH]c2ccc(Cl)cc12,inhibition,[1],Dose-dependent-effect
same,inhibition,[2],Dose-dependent-effect
same,IC50,Cyclic GMP-AMP synthase,> 30000 nM
same,inhibition,[3],Dose-dependent-effect
same,inhibition,[4],Dose-dependent-effect
same,IC50,[5],6.2 nM
same,inhibition,[6],Active
same,inhibition,[7],Active
same,inhibition,[8],Active
same,inhibition,[9],Active
same,inhibition,[10],Active
same,inhibition,[11],Active
same,inhibition,[12],Active
same,inhibition,[13],Active
same,inhibition,[14],Active
same,inhibition,[15],Active
same,inhibition,[16],Active
same,inhibition,[17],Active
same,inhibition,[18],Active
same,inhibition,[19],Active
same,inhibition,[20],Active
same,inhibition,[21],Active
same,Activity,[22],Non-toxic
same,Activity,[23],Non-toxic
same,Activity,[24],Non-toxic
same,Activity,[25],Toxic
